{
  "source": "patent US12030908B2",
  "about": "“Antimicrobial compounds, compositions, and uses thereof” (Lakewood Amedex, Inc., priority 2017, dated 2024)",
  "key": {"pKa measurement": {"assay": "pKa measurement", "type": "physicochemical"}, "E. coli": {"system": "E. coli", "assay": "Broth microdilution MIC at incremental pH, E. coli", "type": "cell-based", "protocol": "MIC testing is conducted using the broth (Mueller Hinton Broth) microdilution procedures relevant to each organism group as established by the Clinical and Laboratory Standards Institute (CLSI; 3-7). MIC plates are prepared in accordance with CLSI (3-7). To prepare the test plates, automated liquid handlers are used to conduct serial dilutions and liquid transfers. Automated liquid handlers utilized in this study include the Multidrop 384 (Labsystems, Helsinki, Finland) and the Biomek 2000 (Beckman Coulter, Fullerton CA). The solution is diluted to desired pH using 1 M Citric Acid or 1 M NaOH buffer. A standardized inoculum of each test organism is prepared per CLSI methods (3, 5-7) to equal a 0.5 McFarland standard in the appropriate media followed by an additional 1:20 dilution (1:10 for anaerobes).\nThe plates are then inoculated with 10 μL of the diluted 0.5 McFarland suspension using the Biomek 2000 from low to high drug concentration, resulting in a final concentration of approximately 5×10^5 CFU/mL per well. An un-inoculated plate is incubated for the purpose of assessing solubility of the drug in the test media. The plates are stacked 3 to 4 high, covered with a sterile lid on the top plate, and incubated for 18 to 24 hours according to CLSI. The MIC is recorded as the lowest concentration of respective compound that inhibited visible growth of the organism."}, "[1]": {"system": "Escherichia coli (strain CFT073, TPPS 1041)", "assay": "Initial urinary tract infection model in BALB/c mice, transurethral treatment (Example 9)", "type": "in vivo", "conditions": "pH 3.5, 1025 mg/kg transurethral", "source_text": "Female BALB/c mice (20-22 g) ordered from Envigo are acclimated to housing conditions and handled in accordance with Animal Use Protocol (AUP) number TP-08. Animals are fed irradiated Teklad Global 29 18 Rodent Diet and water ad libitum. Mice are housed 6/cage in static cages with irradiated ⅛″ Teklad corn cobbedding 7902 inside bioBubble® clean rooms that provide H.E.P.A filtered air into the bubble environment at 100 complete air changes per hour. The environment is controlled to a temperature range of 74°±4° F. and a humidity range of 30-70%. All procedures carried out in this experiment are conducted in compliance with the laws, regulations, and guidelines of the National Institutes of Health and with the approval of the TransPharm Preclinical Solutions Animal Care and Use Committee.\nA clinical isolate of Escherichia coli (strain CFT073, TPPS 1041) are procured from the University of Michigan.\nThe organism is grown overnight at 37° C. in ambient atmosphere on trypticase soy agar plates supplemented with 5% sheep blood cells. The culture is aseptically swabbed and transferred to tubes of trypticase soy broth. The optical density is determined at 600 nm. The culture is diluted to provide an inoculum of approximately 7.5 log10 CFU per mouse in a volume of 30 μL. Instillation of the bacterial challenge constituted time 0 hour for the study. Inoculum counts are estimated before inoculation by optical density and confirmed after inoculation by dilution and back counts.\nOne hour prior to bacterial challenge, water is removed from animal cages. […]\nThe primary endpoint used to assess progress of the infection is mean bacterial burden per gram of urinary bladder tissue. […] Colony forming units (CFU) are enumerated and the total bacterial burden per gram of urinary bladder tissue homogenate is calculated.\nThe geometric mean CFU, along with standard error of the mean (SEM), are calculated using Microsoft Excel and bar charts are prepared for the data using GraphPad Prism v. […]"}, "[2]": {"assay": "Body weight in the Aspergillus fumigatus lung infection model (Example 24)", "type": "in vivo, BALB/c mice", "conditions": "Part A"}},
  "data": [
    {"compound": "CCCCOP(=O)(O)OC[C@H]1O[C@@H](n2ccc(N)nc2=O)C[C@@H]1OP(=O)(O)OCCCC", "note": "[Nu-8, sodium ((2R,3S,5R)-5-(4-amino-2-oxopyrimidin-1(2H)-yl)-3-((butoxyoxidophosphor-yl)oxy)tetrahydrofuran-2-yl)methyl butyl phosphate]", "values": [
      {"measurement": "pKa", "setting": "pKa measurement", "value": 3.20},
      {"measurement": "MIC", "setting": "E. coli; pH 1", "value": 9.8, "unit": "mg/mL"},
      {"measurement": "MIC", "setting": "E. coli; pH 3", "value": 37.5, "unit": "mg/mL"},
      {"measurement": "MIC", "setting": "E. coli; pH 4", "value": 75, "unit": "mg/mL"},
      {"measurement": "MIC", "setting": "E. coli; pH 5", "value": ">75", "unit": "mg/mL"},
      {"measurement": "MIC", "setting": "E. coli; pH 7", "value": ">75", "unit": "mg/mL"},
      {"measurement": "mean bladder CFU burden", "setting": "[1]; 20 minutes post-treatment", "value": 2.9, "unit": "log10"},
      {"measurement": "mean bladder CFU burden", "setting": "[1]; 60 minutes post-treatment", "value": 3.7, "unit": "log10 CFU"},
      {"measurement": "Body Weight (g) Mean ± SD", "setting": "[2]; 3 doses, once daily for 3 days, Day 0", "value": "25.17 ± 0.75", "unit": "g"},
      {"measurement": "Body Weight (g) Mean ± SD", "setting": "[2]; 3 doses, once daily for 3 days, Day 1", "value": "24.50 ± 0.55", "unit": "g"},
      {"measurement": "Body Weight (g) Mean ± SD", "setting": "[2]; 3 doses, once daily for 3 days, Day 2", "value": "23.17 ± 0.75", "unit": "g"},
      {"measurement": "Body Weight (g) Mean ± SD", "setting": "[2]; 3 doses, once daily for 3 days, Day 3 (n = 3)", "value": "22.33 ± 0.58", "unit": "g"},
      {"measurement": "Body Weight (g) Mean ± SD", "setting": "[2]; 5 doses, once daily for 5 days, Day 0", "value": "25.33 ± 0.82", "unit": "g"},
      {"measurement": "Body Weight (g) Mean ± SD", "setting": "[2]; 5 doses, once daily for 5 days, Day 1", "value": "24.33 ± 0.52", "unit": "g"},
      {"measurement": "Body Weight (g) Mean ± SD", "setting": "[2]; 5 doses, once daily for 5 days, Day 2", "value": "23.33 ± 0.52", "unit": "g"},
      {"measurement": "Body Weight (g) Mean ± SD", "setting": "[2]; 5 doses, once daily for 5 days, Day 3 (n = 3)", "value": "22.67 ± 0.58", "unit": "g"},
      {"measurement": "Body Weight (g) Mean", "setting": "[2]; 5 doses, once daily for 5 days, Day 4 (n = 2)", "value": 22.50, "unit": "g"},
      {"measurement": "Body Weight (g) Mean", "setting": "[2]; 5 doses, once daily for 5 days, Day 5 (n = 2)", "value": 22.00, "unit": "g"},
      {"measurement": "Body Weight (g) Mean ± SD", "setting": "[2]; single dose group, Day 0", "value": "25.50 ± 0.55", "unit": "g"},
      {"measurement": "Body Weight (g) Mean ± SD", "setting": "[2]; single dose group, Day 1", "value": "24.17 ± 0.41", "unit": "g"},
      {"measurement": "change in mean body weights", "setting": "[2]; vehicle and treatment groups", "value": "Decreases in mean body weights were observed"}
    ]}
  ]
}
